Columns and labels:
ABUTH (Velvetleaf) [1] = test: Postemergence herbicidal evaluation; type: in vivo, Abutilon theophrasti
Method in brief: (§1)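 Herbicidal effect was judged by eye on a 0–9 scale covering stand, vigor, deformity, size and chlorosis, compared with controls, four to five weeks after seedlings about two weeks old were sprayed (40 psi, ~0.0156–0.500 kg/ha).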

AMBEL (Ragweed, Common) = test: Postemergence herbicidal evaluation; type: in vivo, Ambrosia artemisifolia
Method in brief: as §1

ECHCG (Barnyardgrass) = test: Postemergence herbicidal evaluation; type: in vivo, Echinochloa crus-galli
Method in brief: as §1

SETVI (Foxtail, Green) [2] = test: Postemergence herbicidal evaluation; type: in vivo, Setaria viridis
Method in brief: as §1

[3] = tested on: GLXMAW (Soybean, Williams); test: Postemergence herbicidal evaluation; type: in vivo, Glycine max, (L.) Merr. cv Williams
Method in brief: as §1

ORYSAT (Rice, Tebonnet) = test: Postemergence herbicidal evaluation; type: in vivo, Oryza sativa, (L.) Tebonnet
Method in brief: as §1

[4] = tested on: TRZAWR (Wheat, Winter, cv Riband); test: Postemergence herbicidal evaluation; type: in vivo, Triticum aestivum
Method in brief: as §1

ABUTH (Velvetleaf) [5] = test: Preemergence herbicidal evaluation; type: in vivo, Abutilon theophrasti; settings: rated 4-5 weeks after treatment
Method in brief: (§2)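 In this greenhouse assay, monocot and dicot seeds are planted in soil and treated prior to emergence with an aqueous acetone spray (about 0.0156-0.500 kg/ha). Plants are assessed visually against control on a 0-9 scale after 4-5 weeks.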

CASOB (Sicklepod) = test: Preemergence herbicidal evaluation; type: in vivo, Cassia obtusifolia; settings: rated 4-5 weeks after treatment
Method in brief: as §2

SETVI (Foxtail, Green) [6] = test: Preemergence herbicidal evaluation; type: in vivo, Setaria viridis; settings: rated 4-5 weeks after treatment
Method in brief: as §2

MOOVA (Monochoria) = test: Preemergence weed control under flooded paddy conditions; type: in vivo, Monochoria vaginalis; settings: rated 3-4 weeks after treatment
Method in brief: (§3)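 First, seeds or propagules go into the top 0.5 cm of silt loam; next, water is held 1.5 to 3 cm over the soil; then compound (50/50 acetone/water) is pipetted into it at about 0.0313 to 0.500 kg/ha; finally plants are rated visually 0-9 after three to four weeks.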

[7] = tested on: SAGPY (Arrowhead (Pygmaea)); test: as above; type: in vivo, Sagittaria pygmaea; settings: rated 3-4 weeks after treatment
Method in brief: as §3

CYPIR (Rice Flatsedge) = test: Postemergence weed control under flooded paddy conditions; type: in vivo, Cyperus iria; settings: postemergence weeds, 3-4 weeks after treatment
Method in brief: (§4)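 Weeds 3 to 5 cm tall and rice seedlings at the 1.5 to 2.5 leaf stage were flooded, with water held 1.5 to 3 cm above the soil. Compounds in 50/50 v/v aqueous/acetone went into the flood water at about 0.0313 to 0.500 kg/ha. Visual 0-9 ratings versus control were made 3 to 4 weeks later.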

[8] = tested on: SAGPY (Arrowhead (Pygmaea)); test: as above; type: in vivo, Sagittaria pygmaea; settings: postemergence weeds, 3-4 weeks after treatment
Method in brief: as §4

## Cn1c(C(F)(F)F)cc(=O)n(-c2cc(/N=C3/SCC(=O)N3CC(=O)O)c(Cl)cc2F)c1=O [Compound 52, 2-{{2-Chloro-5-[3,6-dihydro-3-methyl-2,6-dioxo-4-(trifluoromethyl)-1(2H)-pyrimidinyl]-4-fluoro-phenyl}imino}-4-oxo-3-thiazolidineacetic acid]
ABUTH (Velvetleaf) [1]; Rate 0.0158 kg/ha
  Postemergence herbicidal rating ABUTH: 1.0
ABUTH (Velvetleaf) [1]; Rate 0.0315 kg/ha
  Postemergence herbicidal rating ABUTH: 9.0
ABUTH (Velvetleaf) [1]; Rate 0.0630 kg/ha
  Postemergence herbicidal rating ABUTH: 9.0
AMBEL (Ragweed, Common); Rate 0.0158 kg/ha
  Postemergence herbicidal rating AMBEL: 1.0
AMBEL (Ragweed, Common); Rate 0.0315 kg/ha
  Postemergence herbicidal rating AMBEL: 3.0
AMBEL (Ragweed, Common); Rate 0.0630 kg/ha
  Postemergence herbicidal rating AMBEL: 5.0
ECHCG (Barnyardgrass); Rate 0.0158 kg/ha
  Postemergence herbicidal rating ECHCG: 1.0
ECHCG (Barnyardgrass); Rate 0.0315 kg/ha
  Postemergence herbicidal rating ECHCG: 1.0
ECHCG (Barnyardgrass); Rate 0.0630 kg/ha
  Postemergence herbicidal rating ECHCG: 4.0
SETVI (Foxtail, Green) [2]; Rate 0.0158 kg/ha
  Postemergence herbicidal rating SETVI: 1.0
SETVI (Foxtail, Green) [2]; Rate 0.0315 kg/ha
  Postemergence herbicidal rating SETVI: 3.0
SETVI (Foxtail, Green) [2]; Rate 0.0630 kg/ha
  Postemergence herbicidal rating SETVI: 7.0
[3]; Rate 0.0158 kg/ha
  Postemergence herbicidal rating GLXMAW: 5.0
[3]; Rate 0.0315 kg/ha
  Postemergence herbicidal rating GLXMAW: 6.0
[3]; Rate 0.0630 kg/ha
  Postemergence herbicidal rating GLXMAW: 6.0
ORYSAT (Rice, Tebonnet); Rate 0.0158 kg/ha
  Postemergence herbicidal rating ORYSAT: 1.0
ORYSAT (Rice, Tebonnet); Rate 0.0315 kg/ha
  Postemergence herbicidal rating ORYSAT: 1.0
ORYSAT (Rice, Tebonnet); Rate 0.0630 kg/ha
  Postemergence herbicidal rating ORYSAT: 2.0
[4]; Rate 0.0158 kg/ha
  Postemergence herbicidal rating TRZAWR: 2.5
[4]; Rate 0.0315 kg/ha
  Postemergence herbicidal rating TRZAWR: 3.0
[4]; Rate 0.0630 kg/ha
  Postemergence herbicidal rating TRZAWR: 4.5
ABUTH (Velvetleaf) [5]; rate 0.0313 kg/ha
  Preemergence herbicidal rating ABUTH: 9.0
ABUTH (Velvetleaf) [5]; rate 0.0625 kg/ha
  Preemergence herbicidal rating ABUTH: 9.0
ABUTH (Velvetleaf) [5]; rate 0.1250 kg/ha
  Preemergence herbicidal rating ABUTH: 9.0
ABUTH (Velvetleaf) [5]; rate 0.2500 kg/ha
  Preemergence herbicidal rating ABUTH: 9.0
CASOB (Sicklepod); rate 0.0313 kg/ha
  Preemergence herbicidal rating CASOB: 0.0
CASOB (Sicklepod); rate 0.0625 kg/ha
  Preemergence herbicidal rating CASOB: 0.0
CASOB (Sicklepod); rate 0.1250 kg/ha
  Preemergence herbicidal rating CASOB: 1.0
CASOB (Sicklepod); rate 0.2500 kg/ha
  Preemergence herbicidal rating CASOB: 1.0
SETVI (Foxtail, Green) [6]; rate 0.0313 kg/ha
  Preemergence herbicidal rating SETVI: 0.0
SETVI (Foxtail, Green) [6]; rate 0.0625 kg/ha
  Preemergence herbicidal rating SETVI: 0.0
SETVI (Foxtail, Green) [6]; rate 0.1250 kg/ha
  Preemergence herbicidal rating SETVI: 1.0
SETVI (Foxtail, Green) [6]; rate 0.2500 kg/ha
  Preemergence herbicidal rating SETVI: 9.0
MOOVA (Monochoria); 0.2500 kg/ha
  Herbicidal rating MOOVA: 4.0
[7]; 0.2500 kg/ha
  Herbicidal rating SAGPY: 0.0
CYPIR (Rice Flatsedge); rate 0.2500 kg/ha
  Herbicidal rating CYPIR: 2.0
[8]; rate 0.2500 kg/ha
  Herbicidal rating SAGPY: 0.0

## Cn1c(C(F)(F)F)cc(=O)n(-c2cc(N=C3SCC(=O)N3[C@@H](Cc3ccccc3)C(=O)O)c(Cl)cc2F)c1=O [Compound 53, α-Benzyl-2-{{2-chloro-5-[3,6-dihydro-3-methyl-2,6-dioxo-4-(trifluoromethyl)-1(2H)-pyrimidinyl]-4-fluorophenyl}imino}-4-oxo-3-thiazolidineacetic acid, L-]
ABUTH (Velvetleaf) [1]; Rate 0.0158 kg/ha
  Postemergence herbicidal rating ABUTH: 9.0
ABUTH (Velvetleaf) [1]; Rate 0.0315 kg/ha
  Postemergence herbicidal rating ABUTH: 9.0
ABUTH (Velvetleaf) [1]; Rate 0.0630 kg/ha
  Postemergence herbicidal rating ABUTH: 9.0
AMBEL (Ragweed, Common); Rate 0.0158 kg/ha
  Postemergence herbicidal rating AMBEL: 9.0
AMBEL (Ragweed, Common); Rate 0.0315 kg/ha
  Postemergence herbicidal rating AMBEL: 9.0
AMBEL (Ragweed, Common); Rate 0.0630 kg/ha
  Postemergence herbicidal rating AMBEL: 9.0
ECHCG (Barnyardgrass); Rate 0.0158 kg/ha
  Postemergence herbicidal rating ECHCG: 2.0
ECHCG (Barnyardgrass); Rate 0.0315 kg/ha
  Postemergence herbicidal rating ECHCG: 3.0
ECHCG (Barnyardgrass); Rate 0.0630 kg/ha
  Postemergence herbicidal rating ECHCG: 9.0
SETVI (Foxtail, Green) [2]; Rate 0.0158 kg/ha
  Postemergence herbicidal rating SETVI: 6.0
SETVI (Foxtail, Green) [2]; Rate 0.0315 kg/ha
  Postemergence herbicidal rating SETVI: 6.0
SETVI (Foxtail, Green) [2]; Rate 0.0630 kg/ha
  Postemergence herbicidal rating SETVI: 7.0
[3]; Rate 0.0158 kg/ha
  Postemergence herbicidal rating GLXMAW: 9.0
[3]; Rate 0.0315 kg/ha
  Postemergence herbicidal rating GLXMAW: 9.0
[3]; Rate 0.0630 kg/ha
  Postemergence herbicidal rating GLXMAW: 9.0
ORYSAT (Rice, Tebonnet); Rate 0.0158 kg/ha
  Postemergence herbicidal rating ORYSAT: 2.0
ORYSAT (Rice, Tebonnet); Rate 0.0315 kg/ha
  Postemergence herbicidal rating ORYSAT: 2.5
ORYSAT (Rice, Tebonnet); Rate 0.0630 kg/ha
  Postemergence herbicidal rating ORYSAT: 3.5
[4]; Rate 0.0158 kg/ha
  Postemergence herbicidal rating TRZAWR: 2.5
[4]; Rate 0.0315 kg/ha
  Postemergence herbicidal rating TRZAWR: 3.0
[4]; Rate 0.0630 kg/ha
  Postemergence herbicidal rating TRZAWR: 4.0
ABUTH (Velvetleaf) [5]; rate 0.0313 kg/ha
  Preemergence herbicidal rating ABUTH: 7.0
ABUTH (Velvetleaf) [5]; rate 0.0625 kg/ha
  Preemergence herbicidal rating ABUTH: 9.0
ABUTH (Velvetleaf) [5]; rate 0.1250 kg/ha
  Preemergence herbicidal rating ABUTH: 9.0
ABUTH (Velvetleaf) [5]; rate 0.2500 kg/ha
  Preemergence herbicidal rating ABUTH: 9.0
CASOB (Sicklepod); rate 0.0313 kg/ha
  Preemergence herbicidal rating CASOB: 0.0
CASOB (Sicklepod); rate 0.0625 kg/ha
  Preemergence herbicidal rating CASOB: 0.0
CASOB (Sicklepod); rate 0.1250 kg/ha
  Preemergence herbicidal rating CASOB: 1.0
CASOB (Sicklepod); rate 0.2500 kg/ha
  Preemergence herbicidal rating CASOB: 1.0
SETVI (Foxtail, Green) [6]; rate 0.0313 kg/ha
  Preemergence herbicidal rating SETVI: 1.0
SETVI (Foxtail, Green) [6]; rate 0.0625 kg/ha
  Preemergence herbicidal rating SETVI: 4.0
SETVI (Foxtail, Green) [6]; rate 0.1250 kg/ha
  Preemergence herbicidal rating SETVI: 7.0
SETVI (Foxtail, Green) [6]; rate 0.2500 kg/ha
  Preemergence herbicidal rating SETVI: 9.0
MOOVA (Monochoria); 0.0313 kg/ha
  Herbicidal rating MOOVA: 2.0
MOOVA (Monochoria); 0.0625 kg/ha
  Herbicidal rating MOOVA: 2.0
MOOVA (Monochoria); 0.1250 kg/ha
  Herbicidal rating MOOVA: 9.0
MOOVA (Monochoria); 0.2500 kg/ha
  Herbicidal rating MOOVA: 9.0
[7]; 0.0313 kg/ha
  Herbicidal rating SAGPY: 0.0
[7]; 0.0625 kg/ha
  Herbicidal rating SAGPY: 0.0
[7]; 0.1250 kg/ha
  Herbicidal rating SAGPY: 0.0
[7]; 0.2500 kg/ha
  Herbicidal rating SAGPY: 0.0
CYPIR (Rice Flatsedge); rate 0.0313 kg/ha
  Herbicidal rating CYPIR: 2.0
CYPIR (Rice Flatsedge); rate 0.0625 kg/ha
  Herbicidal rating CYPIR: 2.0
CYPIR (Rice Flatsedge); rate 0.1250 kg/ha
  Herbicidal rating CYPIR: 9.0
CYPIR (Rice Flatsedge); rate 0.2500 kg/ha
  Herbicidal rating CYPIR: 9.0
[8]; rate 0.0313 kg/ha
  Herbicidal rating SAGPY: 0.0
[8]; rate 0.0625 kg/ha
  Herbicidal rating SAGPY: 0.0
[8]; rate 0.1250 kg/ha
  Herbicidal rating SAGPY: 0.0
[8]; rate 0.2500 kg/ha
  Herbicidal rating SAGPY: 0.0

— patent US20020137929A1, “1 - (3-heterocyclylphenyl) isothiourea, -isourea, -guanidine and -amidine herbicidal agents” (Intellectual Property Department, BASF Aktiengesellschaft, priority 1998, published 2002)
